Test results reported in patent US20110190390A1, “METHODS AND MATERIALS FOR TREATING PANCREATIC CANCER” (priority 2010, published 2011).

Assays:
SHH expression = experiment: Pancreatic SHH mRNA expression (qPCR) in P48-Cre; LSL-K-rasG12D mice; assay type: in vivo, mouse; settings: 60 mg/kg/day IP x 10 days, mice 7-9 months old, vs untreated age-matched mice, n=1/group
Procedure: FIG. 19. ATM inhibits induction of SHH expression in mPanINs of P48-Cre; LSL-K-ras^G12D mice. Three older P48-Cre; LSL-K-ras^G12D mice (7-9 months of age) were administered ATM (60 mg/kg/day) by IP injection for 10 days. mRNA was isolated from pancreata from treated, and untreated, age-matched P48-Cre; LSL-K-ras^G12D mice and analyzed by qPCR analysid for expression of SHH. n=1/group.
(§1) ATM reduced mPanIN proliferation and SHH expression. In order to investigate the potential therapeutic role of ATM in pancreatic cancer, acute ATM treatment (60 mg/kg/day×10 days) of older P48-Cre; LSL-K-rasG12D mice (PC/+, Ras/+; 7-9 months old, they have already developed PanINs and adenomas) was performed. […] These same mice were analyzed for pancreatic expression of SHH. SHH increased in expression in P48-Cre; LSL-K-rasG12D mice, similar to PKCι.

[1] = test system: mPanINs of P48-Cre; LSL-K-rasG12D mice; experiment: mPanIN proliferation by BrdU incorporation (IHC) in P48-Cre; LSL-K-rasG12D mice; assay type: in vivo, mouse; settings: 60 mg/kg/day IP x 10 days, mice 7-9 months old, vs untreated age-matched mice, n=3/group
Procedure: FIG. 18. ATM inhibits proliferation of mPanINs in P48-Cre; LSL-K-ras^G12D mice. Three older P48-Cre; LSL-K-ras^G12D mice (7-9 months of age) were administered ATM (60 mg/kg/day) by IP injection for 10 days. Mice were injected with BrdU prior to sacrifice. Pancreata were isolated and analyzed by IHC for BrdU incorporation, as an indicator of the proliferative activity of the tissue. BrdU incorporation was compared to untreated, age-matched P48-Cre; LSL-K-ras^G12D mice. n=3/group.
as §1

Panc-1 cells = experiment: In vitro invasion through Matrigel matrix; assay type: cell-based, human; settings: 48 hour pre-incubation
Procedure: (§2) FIG. 13. Aurothiomalate (ATM) inhibits PDAC cells soft agar colony formation and invasion. A) Dose response curves to the growth inhibitory effects of ATM on soft agar colony formation in Panc-1, Capan-1, and MiaPaCa-2 human pancreatic cancer cells. B) Panc-1 cells were pre-incubated in increasing concentrations of ATM and then assayed for in vitro invasion through Matrigel matrix.
(§3) Three PDAC cell lines (Panc-1, Capan-1, and Miapaca-2), expressing varying amounts of PKCι (FIG. 13), were assayed for the ability to form colonies in soft agar (anchorage-independent growth) in the presence of increasing concentrations of aurothiomalate (ATM, FIG. 13A).

[2] = test system: Panc-1, Capan-1, and MiaPaCa-2 human pancreatic cancer cells; experiment: Soft agar colony formation (anchorage-independent growth); assay type: cell-based; settings: range over three PDAC cell lines (Panc-1, Capan-1, Miapaca-2); increasing concentrations
Procedure: as §2
Panc-1 and MiaPaCa-2 cells (5×10^3) were plated in soft agar and assessed for anchorage-independent growth as described elsewhere (Regala et al., J. Biol. Chem., 280:31109-15 (2005)).
as §3

## O=C(O)CC([S-])C(=O)O.[Au+] (stereo not shown) [ATM, aurothiomalate]
SHH expression
  pancreatic SHH expression: significantly reduced
[1]
  proliferation in the mPanINs (BrdU incorporation): significantly reduced
Panc-1 cells
  IC50: 7.4 µM
[2]
  IC50: 20 to 61 µM
